Measured values as given in PMC3827205, “Discovery and Characterization of a Novel Cyclic Peptide That Effectively Inhibits Ephrin Binding to the EphA4 Receptor and Displays Anti-Angiogenesis Activity” (PLoS ONE, 2013).
Several values for one entry are separate records, joined by “and”; a condition that tells them apart may be missing. Equal entries are not always repeated. Positions of bridges follow the written chain, without caps; N, C: chain ends. Residues, ends and D or L forms follow the SMILES beside them. No end group written: not given here.

Experiments:
[1] = molecular target: T1, EphA4 Fc Chimera protein / ephrinA5 (Mus musculus, UniProt Q03137); test: ELISA-based binding assay: inhibition of ephrinA5 AP binding to immobilized EphA4 Fc; type: biochemical
T1 construct: using the immobilized EphA4 extracellular domain fused to human Fc; purchased R&D Systems, Minneapolis, MN
T1 sequence (Q03137 20-547 limits assumed, change not shown): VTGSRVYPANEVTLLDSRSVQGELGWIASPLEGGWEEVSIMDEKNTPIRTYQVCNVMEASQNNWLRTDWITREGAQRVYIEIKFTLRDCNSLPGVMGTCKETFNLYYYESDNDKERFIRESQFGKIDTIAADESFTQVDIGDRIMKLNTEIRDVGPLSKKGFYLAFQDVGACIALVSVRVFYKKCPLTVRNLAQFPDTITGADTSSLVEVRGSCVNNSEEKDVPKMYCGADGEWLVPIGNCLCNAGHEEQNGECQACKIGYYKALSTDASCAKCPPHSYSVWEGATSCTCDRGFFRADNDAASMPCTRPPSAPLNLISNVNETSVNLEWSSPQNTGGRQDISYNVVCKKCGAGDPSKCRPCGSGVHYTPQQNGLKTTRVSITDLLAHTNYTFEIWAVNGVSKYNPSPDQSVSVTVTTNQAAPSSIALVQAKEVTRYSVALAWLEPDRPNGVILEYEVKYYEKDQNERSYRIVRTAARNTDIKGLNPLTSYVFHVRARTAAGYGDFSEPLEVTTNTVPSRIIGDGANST
Protocol: For Eph receptor binding studies, 50 μl of ephrin A5 (5 μg/ml, kindly provided by Dr. Elena B. Pasquale, Sanford-Burnham Medical Research Institute) was coated onto each well on a 96-well ELISA plate (Corning, #3690) overnight at 4°C. The wells were blocked with 100 μl blocking buffer (Pierce, #37543) for 1 h and then rinsed with PBS. A 1 μg of recombinant mouse EphA4 Fc Chimera protein (R&D Systems, Minneapolis, MN) in EIA buffer (1% BSA, 0.05% Tween 20 in TBS) was then incubated in each well for 1.5 h at room temperature. The EphA4 Fc-coated wells were rinsed with PBS buffer and incubated for 1.5 h with different peptide concentrations and same amount of alkaline phosphatase (AP)-tagged ephrin A5 in a total volume of 50 μl. After the unbound peptide and ephrin had been washed away, bound ephrin-A5 AP was quantified using p-nitrophenylphosphate as a substrate by a Synergy2 reader (BioTek, Winooski, VT) with wavelength of 405 nm. Data were fitted using nonlinear regression. IC50 values were calculated using Prism (GraphPad Software Inc.).

HUVEC = HUVEC viability assay (CellTiter-Blue); type: cell-based, human; conditions: for cytotoxic effects on HUVECs: 48 h, 37°C, CellTiter-Blue, fluorescence 540Ex/600Em, at least three independent experiments
Protocol: The cytotoxic effects of the TYY cyclic peptide were measured at different concentrations by plating 1×10^4 HUVEC cells (ATCC) per well in 96-well plates and determining cell survival. Cells were treated with various concentrations of TYY (10 μM and 20 μM) and incubated in an incubator with a 5% CO2 and 95% humidity atmosphere at 37°C for 24 h and 48 h. After incubation, cell viability was measured using a CellTiter-Blue assay kit (Promega) according to the manufacturer’s instructions. Briefly, 20 μl of CellTiter-Blue reagent was added to 100 μl of culture media and cells were incubated for 2-4 hours at 37°C. Afterward, fluorescence at 540Ex/600Em was measured using a fluorescence plate reader (BioTek, Synergy 2). Each experimental data point was generated from at least three independent experiments.
Figure 3 Effects of the TYY cyclic peptide on viability of HUVEC cells. The HUVECs were treated with the indicated concentrations of the TYY peptide. A 0.1% DMSO control was used because the highest concentration of the DMSO vehicle in the TYY solutions was 0.1%. The cell viability was determined by CellTiter-Blue assays 24 h and 48 h after addition of TYY. Each experimental data point was generated from at least three independent experiments.

EphA4 Fc = test: Phage binding assay (phage-displayed peptide on EphA4 Fc); parameters: species or system mouse; conditions: 4 μg/ml EphA4 Fc coating, room temperature, 2 h, HRP-anti-M13, ABTS, 405 nm, versus BSA control
Protocol: A pre-made library consisting of a disulfide-constrained nonapeptide (Ph.D.-C7C) library (New England Biolabs, Beverly, MA) was used for panning on EphA4. Recombinant mouse EphA4 Fc Chimera protein (R&D Systems, Minneapolis, MN) was incubated overnight at 4°C in 96-well ELISA plate wells at concentrations of 10 μg/ml in coating buffer (0.1 M NaHCO3). Wells were blocked for 1 h with blocking buffer (0.1 M NaHCO3, 5 mg/ml BSA, 0.02%NaN3), and rinsed with TBST (0.1% Tween20 in TBS). In round 1 of panning, 5×10^10 plaque-forming units (PFUs) of the phage library in 100 μl TBST were incubated for 1h at room temperature in EphA4 receptor-coated wells. After washing, the remaining bound phage were eluted with 100 μl of 0.2 M glycine-HCl (pH 2.2), and then neutralized by 15 μl 1M Tris-HCl (pH9.1). The entire eluate was used to infect early-log phase ER2738 host bacteria and amplified (4.5 h, 37 °C). The phage were concentrated and stored according to the manufacturer’s recommendations. In rounds 2, 3, and 4, we added 4.9×10^10, 1.81×10^11, 1.95×10^11 PFUs of the amplified phage pool from the previous round, respectively, to an EphA4 Fc-coated well and a BSA coated well. The phages were panned as described for round 1, except eluted phages were tittered prior to amplification to assess enrichment.
Phages binding to EphA4 receptor-coated plates were quantified using an anti-phage antibody conjugated to horseradish peroxidase (M13 phage detection kit, Amersham Pharmacia Biotech, Piscataway, NJ) with 2,2-azino-bis(3-ethylbenzthiazoline-6-sulfonic acid) as substrate. A 50 μl of 4 μg/ml EphA4 Fc or 5 mg/ml BSA (as a negative control) in coating buffer (0.1 M NaHCO3) was incubated overnight at 4°C in 96-well ELISA plate wells. Wells were blocked for 30 minutes with blocking buffer, and rinsed with TBST. A 50 μl of amplified phage was added to each well and incubated at room temperature for 2 h. […] Absorbance of each well was read at 405 nm with a Synergy 2 reader (BioTek, Synergy 2). […]

EphA4 = conditions: ref [25]; cited from earlier work
Text: A promising strategy for anti-angiogenic cancer therapies is to antagonize Eph-ephrin interactions by interfering with the Eph receptor/ephrin system. Several different synthetic peptides and small molecules have been studied for this purpose; the advantage of these artificial ligands is that they can show a much higher selectivity compared to the physiological ephrin ligands.

Q: Which results are given for `CC(C)C[C@@H]1NC(=O)[C@@H]2CCCN2C(=O)[C@H](Cc2c[nH]c3ccccc23)NC(=O)[C@H](Cc2ccc(O)cc2)NC(=O)[C@H](Cc2ccc(O)cc2)NC(=O)[C@H]([C@@H](C)O)NC(=O)[C@@H](N)CSSC[C@@H](C(N)=O)NC(=O)[C@@H]2CCCN2C1=O` [TYY] (H-CTYYWPLPC-NH2; disulfide 1-9)?
A: inhibition of EphA4-ephrinA5 binding ([1]; 100 nM peptide, ELISA, 1.5 h, three independent measurements): 24.8%; inhibition of EphA4-ephrinA5 binding ([1]; 100 μM peptide, ELISA, 1.5 h, three independent measurements): 94.06% and 94%; IC50 ([1]; ELISA, ephrin A5-coated plate, EphA4 Fc, AP-tagged ephrin A5, 1.5 h incubation, p-nitrophenylphosphate, 405 nm, nonlinear regression (Prism), three independent measurements): 11.7 µM; cytotoxic effects on HUVECs (HUVEC; 10 μM): no cytotoxic effects on HUVECs; cytotoxic effects on HUVECs (HUVEC; 20 μM): no cytotoxic effects on HUVECs; cytotoxic effects in HUVECs (HUVEC; concentrations up to 20 μM): no cytotoxic effects in the HUVECs

Q: Which “binding of phage clones to EphA4 Fc” value (EphA4 Fc) does the source give for “CLMTSQFRC (disulfide 1-9) [cyclic nonapeptide c[…] from M13 phage display library, tested on phage]” here?
A: significant binding

Q: With “CSWYWPLPC (disulfide 1-9) [disulfide-constrained cyclic nonapeptide c[…] from M13 phage display library]” as the molecule, how does the “inhibition of ephrin A5 binding to EphA4” value ([1]; 50 μM peptide, ELISA, 1.5 h) read?
A: 40%

Q: What about the “inhibition of EphA4 binding with AP-tagged ephrinA5 (in words)” value ([1]; dose dependence) of the same molecule?
A: dose-dependent inhibition

Q: What about the “binding of phage clones to EphA4 Fc” value (EphA4 Fc) of the same molecule?
A: significant binding

Q: With “CWPIKVGWC (disulfide 1-9) [cyclic nonapeptide c[…] from M13 phage display library, tested on phage]” as the molecule, how does the “binding of phage clones to EphA4 Fc” value (EphA4 Fc) read?
A: significant binding

Q: For “KYLPYWPVLSSL [linear 12-residue KYL peptide (…), positive control, reference compound]”, which “inhibition of EphA4-ephrinA5 binding” value ([1]; 25 μM, positive control, ELISA, 1.5 h, three independent measurements) is on record?
A: 92%

Q: And the “artificial ligand of EphA4” value (EphA4)?
A: act as artificial ligands
